Reference: patent EP4700041A1, “NOVEL PEPTIDE HAVING ACTIVITY OF RETARDING DEGRADATION OF HYALURONIC ACID AND USES THEREOF” (Caregen Co., Ltd., priority 2023, dated 2026)
Ends that are not written are not given here.

What was measured:
[1] = Delay of hyaluronic acid degradation by reactive oxygen species in BDDE-cross-linked filler (Congo Red diffusion, absorbance 500 nm); settings: 37°C, FIG. 6
Experimental: A 1,4-Butanediol diglycidyl ether (BDDE)-cross-linked hyaluronic acid filler with or without the peptide of Preparation Example 1 was prepared, and Congo Red and hyaluronidase (HAdase) as absorbing dyes were prepared. 20 µL of 1 mM Congo Red was added to each 1.5 mL eppendorf tube, and 100 µL each of the peptide-free filler (control filler) and the peptide-containing filler were added on the absorbing dye. Each was treated with 350 µL of 500 mM hydrogen peroxide (H2O2). Each tube was placed in an incubator at 37°C, and 100 µL of the sample supernatant was collected at time points of 1 hour, 3 hours, 6 hours, 24 hours, 48 hours, and 72 hours and transferred to 96-wells. The absorbance was measured at 500 nm using a microplate reader (SpectraMax iD3, Molecular devices, USA). As above, BDDE-cross-linked hyaluronic acid filler samples with or without the peptide were prepared, and the degree of degradation of hyaluronic acid filler by reactive oxygen species was compared depending on the presence or absence of peptide. The degree of degradation of hyaluronic acid filler was measured by the change in absorbance due to the diffusion of dye. That is, the principle that the flowability of the sample increases when hyaluronic acid is degraded by reactive oxygen species and thus the diffusion of the dye increases was utilized.

[2] = pH stability of the peptide (HPLC area); assay type: physicochemical; settings: 1000 ppm solution, pH 4 to pH 10, HPLC area compared with pH 7; FIG. 7b
Experimental: The evaluation of pH stability was performed as follows. A diluted solution of the peptide of Preparation Example 1 at a concentration of 1000 ppm was prepared, and the initial pH value of the solution was measured (pH = 3.21). 0.5 M NaOH was added so as to titrate the pH of the solution to pH 4, pH 7, and pH 10, respectively. Each sample was filtered through a 0.22 µm filter. The area values were compared based on pH 7 measured by HPLC.

[3] = Delay of hyaluronic acid degradation by reactive oxygen species in hyaluronic acid solution (viscosity, rheometer); settings: 1.5 wt% hyaluronic acid solution in PBS; peptide 100 ppm, 1000 ppm, 5000 ppm; 500 mM H2O2; 60 and 180 minutes; FIG. 5
Experimental: Hyaluronic acid was dissolved in PBS to a concentration of 1.5 wt% and hydrated, and 10 g of this solution was dispensed into each conical tube. Peptide solutions were added to the dispensed hyaluronic acid solutions so that the final peptide concentrations were 0 ppm (no addition), 100 ppm, 1000 ppm, and 5000 ppm, respectively. 2 mL of 500 mM hydrogen peroxide (H2O2) was added to each. Viscosity was measured using a rheometer (single shear stress) by sampling at 0, 30, 60, and 180 minutes to compare the viscosity values according to the peptide concentration. As above, 1.5 wt% hyaluronic acid solutions containing peptides at each concentration were treated with hydrogen peroxide to maintain the degradation reaction by reactive oxygen species for 60 and 180 minutes, thereby degrading hyaluronic acid. After the degradation reaction, the viscosity of each hyaluronic acid solution was measured to confirm the degradation delaying efficacy.

[4] = Thermal stability of the peptide (HPLC area); assay type: physicochemical; settings: 1000 ppm solution, 50°C vs 25°C, 72 hours, FIG. 7a
Experimental: The evaluation of thermal stability was performed as follows. A diluted solution of the peptide of Preparation Example 1 at a concentration of 1000 ppm was prepared, dispensed into 50 mL conical tubes, and placed in an incubator at 25°C and 50°C. After 72 hours, 1 mL of each sample was filtered through a 0.22 µm filter. The area values were compared at 25°C based on pH 7 measured by HPLC.

- degradation delay improved ([1]; BDDE-cross-linked hyaluronic acid filler with peptide vs peptide-free control filler, 24 hours after treatment with 500 mM hydrogen peroxide): ≥ 50%
- effect of delaying degradation ([1]; BDDE-cross-linked hyaluronic acid filler with peptide, treated for 48 hours with 500 mM hydrogen peroxide): 85%
- pH stability [2]: stable
- thermal stability [4]: stable
Sequence: KIWNLEPSRNGT [SEQ ID NO: 1, KIWNLEPSRNGT]
- degradation of hyaluronic acid by reactive oxygen species (viscosity) [3]: degradation of hyaluronic acid was delayed as the concentration of peptide increased
